One compound from ChEMBL document CHEMBL4321854, “Discovery of a First-in-Class Mitogen-Activated Protein Kinase Kinase 1/2 Degrader” (J Med Chem, 2019) can be followed below.

Active and inactive are the calls of the source. The calls are words filed in the database; no cut-off is given here.

Data set [1] concerns the target T1, von Hippel-Lindau disease tumor suppressor/Dual specificity mitogen-activated protein kinase kinase 2/Dual specificity mitogen-activated protein kinase kinase 1 (Homo sapiens) (UniProt P36507+Q02750+P40337). Briefly: Protac activity against VHL/MEK1/2 in human SK-MEL-28 cells harboring with BRAF V600E variant assessed as reduction in phosphorylation of MEK at S218/222 residues at 0.1 to 0.3 after >= 2 hrs by Western blot analysis. The class given is cell-based.

For data set [2], the target named is T1, von Hippel-Lindau disease tumor suppressor/Dual specificity mitogen-activated protein kinase kinase 2/Dual specificity mitogen-activated protein kinase kinase 1 (Homo sapiens). In words: Protac activity against VHL/MEK1/2 in human SK-MEL-28 cells harboring with BRAF V600E variant assessed as in phosphorylation of MEK at S218/222 residues at 0.3 uM pretreated with VHL ligand, VH 032 for 2 hrs followed by incubation with compound for 10 hrs by Western blot analysis. It is filed as cell-based. Background: In western blotting, separated proteins are transferred to a membrane and probed.

For data set [3] the target is unchanged. In words: Protac activity against VHL/MEK1/2 in human HT-29 cells harboring with BRAF V600E variant assessed as phosphorylation of MEK at S218/222 residues at 0.3 uM pretreated with NEDD8-activating enzyme inhibitor, MLN4924 for 2 hrs followed by incubation with compound for 10 hrs by Western blot analysis. It is filed as cell-based.
Data set [4] has as its target T2, von Hippel-Lindau disease tumor suppressor/Dual specificity mitogen-activated protein kinase kinase 1 (Homo sapiens) (UniProt Q02750+P40337). Briefly: Protac activity against VHL/MEK1 in human COLO205 cells harboring with BRAF V600E variant assessed as degradation of MEK1 at 3 to 5 uM after 24 hrs by Western blot analysis. The class given is cell-based.
Data set [5] has as its target T2, von Hippel-Lindau disease tumor suppressor/Dual specificity mitogen-activated protein kinase kinase 1 (Homo sapiens). In words: Protac activity against VHL/MEK1 in human SK-MEL-28 cells harboring with BRAF V600E variant assessed as degradation of MEK1 by measuring MEK1 protein level at 0.3 uM pretreated with MEK1/2 inhibitor, PD0325901 for 2 hrs followed by incubation with compound for 10 hrs by Western blot analysis. It is filed as cell-based.

Data set [6] has as its target T1, von Hippel-Lindau disease tumor suppressor/Dual specificity mitogen-activated protein kinase kinase 2/Dual specificity mitogen-activated protein kinase kinase 1 (Homo sapiens). In words: Protac activity against VHL/MEK1/2 in human UACC257 cells harboring with BRAF V600E variant assessed as reduction in phosphorylation of ERK at T202/Y204 residues after 24 hrs by Western blot analysis. It is filed as cell-based.

The nature of data set [7]: Plasma concentration in Swiss albino mouse at 50 mg/kg, ip measured after 8 hrs by LC-MS/MS analysis. It is filed as ADME, organism-based.
In data set [8] the target is von Hippel-Lindau disease tumor suppressor/Dual specificity mitogen-activated protein kinase kinase 2 (Homo sapiens, UniProt P36507+P40337, V600E). In words: (§1) Protac activity against VHL/MEK2 in human HT-29 cells harboring BRAF V600E variant assessed as degradation of MEK2 after 24 hrs by Western blot analysis. It is filed as cell-based.
For data set [9], the target named is T3, von Hippel-Lindau disease tumor suppressor/Dual specificity mitogen-activated protein kinase kinase 2 (Homo sapiens) (UniProt P36507+P40337). The description is as §1. The class given is cell-based.
Data set [10] in a line: Ratio of Plasma concentration in Swiss albino mouse at 50 mg/kg, ip measured after 8 hrs to GI50 for antiproliferative activity against human SK-MEL-28 cells. It is filed as organism-based. To be noted: in vivo.
In data set [11] the target is T2, von Hippel-Lindau disease tumor suppressor/Dual specificity mitogen-activated protein kinase kinase 1 (Homo sapiens). Briefly: Protac activity against VHL/MEK1 in human SK-MEL-28 cells harboring with BRAF V600E variant assessed as degradation of MEK1 by measuring reduction in MEK1 protein level at 0.1 to 0.3 uM after 2 hrs by Western blot analysis. It is filed as cell-based.

Data set [12] addresses T3, von Hippel-Lindau disease tumor suppressor/Dual specificity mitogen-activated protein kinase kinase 2 (Homo sapiens). Briefly: Protac activity against VHL/MEK2 in human HT-29 cells harboring BRAF V600E variant assessed as degradation of MEK2 by measuring reduction in MEK2 protein level at 0.5 uM after 24 hrs by Western blot analysis relative to control. It is filed as cell-based. Further details: scale not given: the % may be the effect or the level left.

Data set [13] has as its target T2, von Hippel-Lindau disease tumor suppressor/Dual specificity mitogen-activated protein kinase kinase 1 (Homo sapiens). In words: Protac activity against VHL/MEK1 in human HT-29 cells harboring with BRAF V600E variant assessed as degradation of MEK1 by measuring reduction in MEK1 protein level at 0.1 uM after 10 hrs by LC-MS based Volcano plot analysis. It is filed as cell-based.

T2 sequence (P40337 whole entry, looked up): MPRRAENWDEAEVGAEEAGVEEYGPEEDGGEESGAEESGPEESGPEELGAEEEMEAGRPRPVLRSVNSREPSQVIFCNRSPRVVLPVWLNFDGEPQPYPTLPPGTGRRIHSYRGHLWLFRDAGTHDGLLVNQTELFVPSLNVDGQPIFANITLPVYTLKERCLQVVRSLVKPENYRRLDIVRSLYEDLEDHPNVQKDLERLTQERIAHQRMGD
T2 sequence (Q02750 whole entry, looked up): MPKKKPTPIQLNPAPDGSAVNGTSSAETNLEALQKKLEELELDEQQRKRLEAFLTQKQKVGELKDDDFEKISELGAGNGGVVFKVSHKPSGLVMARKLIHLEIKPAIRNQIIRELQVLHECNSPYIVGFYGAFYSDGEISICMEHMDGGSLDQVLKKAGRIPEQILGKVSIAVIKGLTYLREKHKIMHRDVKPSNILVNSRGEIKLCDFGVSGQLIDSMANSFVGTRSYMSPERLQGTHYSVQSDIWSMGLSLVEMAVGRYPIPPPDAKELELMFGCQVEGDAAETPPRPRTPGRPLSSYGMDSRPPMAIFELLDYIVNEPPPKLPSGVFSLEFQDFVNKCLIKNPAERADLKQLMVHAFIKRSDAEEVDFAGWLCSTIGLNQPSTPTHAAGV
T1 sequence (P36507 whole entry, looked up): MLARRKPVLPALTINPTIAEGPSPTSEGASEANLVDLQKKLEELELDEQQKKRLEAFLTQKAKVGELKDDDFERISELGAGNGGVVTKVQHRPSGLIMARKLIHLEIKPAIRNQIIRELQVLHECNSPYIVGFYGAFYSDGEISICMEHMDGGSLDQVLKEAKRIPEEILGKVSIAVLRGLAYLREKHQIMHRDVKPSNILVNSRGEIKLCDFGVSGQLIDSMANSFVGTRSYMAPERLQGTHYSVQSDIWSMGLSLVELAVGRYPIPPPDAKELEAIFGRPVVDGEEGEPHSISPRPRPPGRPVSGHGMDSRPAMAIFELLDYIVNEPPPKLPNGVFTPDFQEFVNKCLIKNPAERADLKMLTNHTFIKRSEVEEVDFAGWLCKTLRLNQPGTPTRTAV
T1 sequence (P40337 whole entry, looked up): as the sequence (P40337 whole entry, looked up) above
T1 sequence (Q02750 whole entry, looked up): as the sequence (Q02750 whole entry, looked up) above
T3 sequence (P36507 whole entry, looked up): as the sequence (P36507 whole entry, looked up) above
T3 sequence (P40337 whole entry, looked up): as the sequence (P40337 whole entry, looked up) above
von Hippel-Lindau disease tumor suppressor/Dual specificity mitogen-activated protein kinase kinase 2, sequence (P36507 whole entry, looked up, stated change not applied): as the sequence (P36507 whole entry, looked up) above
von Hippel-Lindau disease tumor suppressor/Dual specificity mitogen-activated protein kinase kinase 2, sequence (P40337 whole entry, looked up, stated change not applied): as the sequence (P40337 whole entry, looked up) above

A word on the DC50: it is the concentration giving 50% degradation. `Cc1ncsc1-c1ccc([C@H](C)NC(=O)[C@@H]2C[C@@H](O)CN2C(=O)[C@@H](NC(=O)CCCCCCCCCCNCCCONC(=O)c2ccc(F)c(F)c2Nc2ccc(I)cc2F)C(C)(C)C)cc1`: the result in data set [1], in data set [4], in data set [11] and in data set [13] was Active. Further, the outcome in [2], in data set [3] and in [5] was inactive. The Activity entry in [6] is “Dose-dependent effect”; in [9], “Dose-dependent effect”; in data set [12], above 80%. In data set [7], this compound yielded a concentration at 8 h of 710 nM. In addition, the DC50 in [8] worked out at 17 nM. Further, the Ratio in data set [10] lay within 3 to 20.
